Molecules are shown by their SMILES.

Usually Ki stands for a measure of affinity in units of concentration, obtained from inhibition or displacement.

Assay [1] addresses T1, Orexin receptor type 2 (Homo sapiens, UniProt O43614).
T1 sequence (O43614 whole entry): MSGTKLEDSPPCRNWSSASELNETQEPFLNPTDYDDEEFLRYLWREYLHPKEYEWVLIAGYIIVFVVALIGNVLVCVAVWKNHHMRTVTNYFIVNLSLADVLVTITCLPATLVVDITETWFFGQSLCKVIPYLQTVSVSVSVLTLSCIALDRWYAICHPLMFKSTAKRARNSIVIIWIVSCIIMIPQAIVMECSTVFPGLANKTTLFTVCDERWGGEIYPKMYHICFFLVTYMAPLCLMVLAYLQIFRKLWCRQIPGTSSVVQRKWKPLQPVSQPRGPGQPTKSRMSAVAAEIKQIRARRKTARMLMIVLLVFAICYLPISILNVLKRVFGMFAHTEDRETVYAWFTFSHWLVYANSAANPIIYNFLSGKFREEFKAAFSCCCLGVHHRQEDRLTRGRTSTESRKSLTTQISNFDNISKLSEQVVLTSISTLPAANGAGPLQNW
The assay is described as follows: (§1) Radioligand Binding: HEK293 stably expressing human orexin-2 receptor (Genebank accession number NM 001526) were grown to confluency in DMEM/F12 (Gibco, Cat #11039), in DMEM, 10% FBS, 1× Pen/Strep, 1× NaPyruvate, 1×HEPES, 600 ug/ml G418 media on 150 cm2 tissue culture plates, washed with 5 mM EDTA in PBS (HyClone Dulbecco's Phosphate Buffered Saline 1× with Calcium and Magnesium, Cat #SH30264.01, hereafter referred to simply as PBS) and scraped into 50 ml tubes. After centrifugation (2K xG, 10 min at 4° C.), the supernatant was aspirated and the pellets frozen and stored at −80° C. Cells were resuspended in PBS in the presence of 1 tablet of protease inhibitor cocktail (Roche, Cat. #11836145001) per 50 mL.

For assay [2], the target named is T2, Orexin/Hypocretin receptor type 1 (Homo sapiens, UniProt O43613).
T2 sequence (O43613 whole entry): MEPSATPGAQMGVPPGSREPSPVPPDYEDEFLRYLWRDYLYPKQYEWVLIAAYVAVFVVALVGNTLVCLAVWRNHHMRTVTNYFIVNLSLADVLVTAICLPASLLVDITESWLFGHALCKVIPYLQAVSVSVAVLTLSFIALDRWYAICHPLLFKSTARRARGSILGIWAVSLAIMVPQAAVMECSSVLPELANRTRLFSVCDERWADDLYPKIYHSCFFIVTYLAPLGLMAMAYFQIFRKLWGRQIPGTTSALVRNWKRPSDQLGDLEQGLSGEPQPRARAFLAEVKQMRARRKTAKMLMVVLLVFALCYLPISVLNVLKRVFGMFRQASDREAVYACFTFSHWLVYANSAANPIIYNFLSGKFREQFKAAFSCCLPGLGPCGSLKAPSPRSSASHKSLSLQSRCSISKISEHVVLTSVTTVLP
The description is as §1, with “Chinese ovary cells (CHO)” for “HEK293”, “orexin 1” for “orexin-2”, “#11039),” for “#11039), in DMEM,”, “Pen/Strep,” for “Pen/Strep, 1× NaPyruvate, 1×HEPES,”, “μg/mL” for “ug/ml”, “Phoshpate” for “Phosphate”. The class given is cell-based.

Turning to `Cc1cc(C)nc(N2C[C@@H]3CCN(C(=O)c4ccccc4-c4nc(C)no4)C[C@@H]32)n1`, the figures for the Ki in assay [1] and in assay [2] were 59 nM and 1590 nM, respectively.

(Values after ChEMBL document CHEMBL3639344, “Fused heterocyclic compounds as orexin receptor modulators” (2014).)
